Assay results as given in patent publication US9187426B2, “Organic compounds” (Novartis AG, priority 2008, dated 2015).
Where a name gives a salt, the structure may show the parent alone.

melting point | SMILES
141 to 143 °C | O=C(NCc1ccccn1)c1ccnc(N2CCN(Cc3ccc(F)cc3)C2=O)c1 (as salt: hydrochloride) [Example 15.3, 2-(3-(4-fluorobenzyl)-2-oxoimidazolidin-1-yl)-N-(pyridin-2-ylmethyl)isonicotinamide dihydrochloride]
165 to 168 °C | O=C(NCc1ccc(C(F)(F)F)cc1)c1ccnc(NC(=O)c2ccccc2)c1 [Example 1, 2-benzamido-N-(4-(trifluoromethyl)benzyl)isonicotinamide]
135 to 138 °C | Cc1ccc(CNC(=O)c2ccnc(NC(=O)c3ccccc3)c2)cc1 [Example 1.2, 2-benzamido-N-(4-methylbenzyl)isonicotinamide]
145 to 146 °C | O=C(Nc1cc(-c2nc3ccccc3[nH]2)ccn1)c1ccccc1 [Example 4, N-(4-(1H-benzo[d]imidazol-2-yl)pyridin-2-yl)benzamide]
174 to 176 °C | O=C(NCc1ccccc1)c1ccnc(NC(=O)c2ccccc2)c1 [Example 5, 2-benzamido-N-benzylisonicotinamide]
151 to 153 °C | O=C(NCc1ccccc1)c1ccnc(NC(=O)c2ccc(OC(F)(F)F)cc2)c1 [Example 5.1, N-benzyl-2-(4-trifluoromethoxybenzoylamino)isonicotinamide]
181 to 183 °C | O=C(NCc1ccccc1)c1ccnc(NC(=O)c2ccc(C(F)(F)F)cc2)c1 [Example 5.2, N-benzyl-2-(4-trifluoromethylbenzoylamino)isonicotinamide]
177 to 179 °C | O=C(CCc1ccccc1)Nc1cc(C(=O)NCc2ccccc2)ccn1 [Example 5.3, N-benzyl-2-(3-phenylpropanamido)isonicotinamide]
175 to 176 °C | O=C(NCc1ccccc1)c1ccnc(NC(=O)c2ccccc2F)c1 [Example 6, N-benzyl-2-(2-fluorobenzamido)isonicotinamide]
140 to 143 °C | O=C(NCc1ccccc1)c1ccnc(NC(=O)c2cccc(F)c2)c1 [Example 6.1, N-benzyl-2-(3-fluorobenzamido)isonicotinamide]
55 to 57 °C | O=C(NCc1ccccc1)c1ccnc(NC(=O)C2CCCC2)c1 [Example 6.2, N-benzyl-2-(cyclopentanecarboxamido)isonicotinamide]
160 to 162 °C | O=C(NCc1ccccc1)c1ccnc(NC(=O)c2cccs2)c1 [Example 6.3, N-benzyl-2-(thiophene-2-carboxamido)isonicotinamide]
165 to 166 °C | COc1ccc(C(=O)Nc2cc(C(=O)NCc3ccccc3)ccn2)cc1 [Example 6.5, N-benzyl-2-(4-methoxybenzamido)isonicotinamide]
205 to 207 °C | COc1ccccc1C(=O)Nc1cc(C(=O)NCc2ccccc2)ccn1 [Example 6.6, N-benzyl-2-(2-methoxybenzamido)isonicotinamide]
65 to 67 °C | O=C(NCc1ccccc1)c1ccnc(NC(=O)c2cccc3ccccc23)c1 [Example 6.7, 2-(1-naphthamido)-N-benzylisonicotinamide]
180 to 181 °C | O=C(NCc1ccccc1)c1ccnc(NC(=O)c2cc(F)ccc2Cl)c1 [Example 6.9, N-benzyl-2-(2-chloro-5-fluorobenzamido)isonicotinamide]
180 to 181 °C | N#Cc1ccc(C(=O)Nc2cc(C(=O)NCc3ccccc3)ccn2)cc1 [Example 6.10, N-benzyl-2-(4-cyanobenzamido)isonicotinamide]

melting point | SMILES
170 to 171 °C | CS(=O)(=O)c1cccc(C(=O)Nc2cc(C(=O)NCc3ccccc3)ccn2)c1 [Example 6.13, N-benzyl-2-(3-(methylsulfonyl)benzamido)isonicotinamide]
170 to 171 °C | O=C(NCc1ccccc1)c1ccnc(NC(=O)c2ccc(F)cc2)c1 [Example 6.14, N-benzyl-2-(4-fluorobenzamido)isonicotinamide]
126 to 128 °C | O=C(NCc1ccccc1)c1ccnc(NC(=O)c2cccc(C(F)(F)F)c2)c1 [Example 6.15, N-benzyl-2-(3-(trifluoromethyl)benzamido)isonicotinamide]
132 to 133 °C | COc1cc(C(=O)NCc2ccccc2)cc(NC(=O)c2ccccc2)n1 [Example 6.17, 2-benzamido-N-benzyl-6-methoxyisonicotinamide]
198 to 201 °C | O=C(NCc1ccccc1)c1cc[n+]([O-])c(NC(=O)c2ccccc2)c1 [Example 7, 2-benzamido-N-benzylisonicotinamide-1-N-oxide]
257 °C (dec.) | O=C(NCc1ccccc1)c1cc(O)nc(NC(=O)c2ccccc2)c1 [Example 8, 2-benzamido-N-benzyl-6-hydroxyisonicotinamide]
133 to 135 °C | Cc1c[nH]c(-c2ccnc(NC(=O)c3ccccc3)c2)n1 [Example 10, N-(4-(4-methyl-1H-imidazol-2-yl)pyridin-2-yl)benzamide]
95 to 97 °C | CCCc1c[nH]c(-c2ccnc(NC(=O)c3ccccc3)c2)n1 [Example 10.1, N-(4-(4-propyl-1H-imidazol-2-yl)pyridin-2-yl)benzamide]
103 to 105 °C | CC(C)Cc1c[nH]c(-c2ccnc(NC(=O)c3ccccc3)c2)n1 [Example 10.3, N-(4-(4-isobutyl-1H-imidazol-2-yl)pyridin-2-yl)benzamide]
265 to 267 °C | O=C(Nc1cc(-c2nc(-c3ccccc3)c[nH]2)ccn1)c1ccccc1 [Example 10.5, N-(4-(4-phenyl-1H-imidazol-2-yl)pyridin-2-yl)benzamide]
151 to 155 °C | O=C(Nc1cc(-c2nnc(-c3ccccc3)o2)ccn1)c1ccccc1 [Example 11, N-(4-(5-phenyl-1,3,4-oxadiazol-2-yl)pyridin-2-yl)benzamide]
187 to 189 °C | O=C(Nc1cc(-c2nnc(Cc3ccccc3)o2)ccn1)c1ccccc1 [Example 11.1, N-[4-(5-benzyl-[1,3,4]oxadiazol-2-yl)-pyridin-2-yl]benzamide]
150 to 151 °C | O=C(Nc1cc(-c2nc(Cc3ccccc3)no2)ccn1)c1ccccc1 [Example 12, N-[4-(3-benzyl-[1,2,4]oxadiazol-5-yl)-pyridin-2-yl]benzamide]
118 to 120 °C | CNC(=O)c1ccnc(N2CCN(Cc3ccc(F)cc3)C2=O)c1 [Example 13, 2-(3-(4-fluorobenzyl)-2-oxoimidazolidin-1-yl)-N-methylisonicotinamide]
148 to 150 °C | O=C(NCc1cncs1)c1ccnc(N2CCN(Cc3ccc(F)cc3)C2=O)c1 [Example 14.1, 2-(3-(4-fluorobenzyl)-2-oxoimidazolidin-1-yl)-N-(thiazol-5-ylmethyl)isonicotinamide]
123 to 125 °C | O=C(NCc1nccs1)c1ccnc(N2CCN(Cc3ccc(F)cc3)C2=O)c1 [Example 14.3, 2-(3-(4-fluorobenzyl)-2-oxoimidazolidin-1-yl)-N-(thiazol-2-ylmethyl)isonicotinamide]
148 to 150 °C | O=C(NCc1ncco1)c1ccnc(N2CCN(Cc3ccc(F)cc3)C2=O)c1 [Example 14.4, 2-(3-(4-fluorobenzyl)-2-oxoimidazolidin-1-yl)-N-(oxazol-2-ylmethyl)isonicotinamide]
